Where a name gives a salt, the structure may show the parent alone.
Key:
[1] = target: T1, HCV polymerase (NS5B) type 1a (Hepatitis C virus genotype 1a, UniProt P26664); experiment: Assay of enzyme (HCV polymerase) inhibitory activity, type 1a enzyme; assay type: biochemical, HCV type 1a (cloned from the blood of patients); details: HCV polymerase inhibitory activity IC50, 1a, type 1a enzyme
T1 construct: made in house; host or cells: Escherichia coli (by the 'similar method' of the 1b enzyme)
How it was run: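 Reactions ran 60 min at 25° C in 20 mM Tris-HCl pH 7.5, 5 mM MgCl2, 50 mM NaCl, holding genotype 1a NS5B (1.5 μg/ml, Δ47 C-terminus, 6His), substrate RNA 5 μg/ml, UTP 2 μM with tritiated UTP and other NTPs 50 μM. IC50 derived from incorporated radiolabel in filter-trapped RNA relative to uninhibited reaction.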

[2] = target: T2, HCV polymerase (NS5B) type 1b (Hepatitis C virus genotype 1b, UniProt P26663); experiment: Assay of enzyme (HCV polymerase) inhibitory activity, type 1b enzyme; assay type: biochemical, HCV BK strain (type 1b); details: HCV polymerase inhibitory activity IC50, 1b, type 1b enzyme
T2 construct: a region encoding NS5B (J Virol 1991 March, 65(3), 1105-13, 544 amino acids after deletion of 47 amino acids on the C-terminal); 6xHis (C); made in house; host or cells: Escherichia coli
How it was run: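 IC50 derived from [3H]UTP incorporation into TCA-insoluble RNA, compared with and without test compound. Reaction (25 °C, 60 min, Tris pH 7.5, 5 mM MgCl2): E. coli-expressed 1b NS5B Δ47 with His tag at 0.5 μg/ml, 5 μg/ml run-off substrate RNA, ATP/GTP/CTP 50 μM, UTP 2 μM.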

Row | Compound | IC50 [1] [nM] | IC50 [2] [nM]
1 | Cc1nc2nc(N3CCN(S(=O)(=O)c4ccc(OC(F)(F)F)cc4)[C@@H](C(=O)NCc4ccc(OC(F)(F)F)cc4)C3)sc2c(=O)[nH]1 [Example 910, (R)-4-(5-methyl-7-oxo-6,7-dihydro-thiazolo[4,5-d]pyrimidin-2-yl)-1-(4-trifluoromethoxy-benzenesulfonyl)-piperazine-2-carboxylic acid 4-trifluoromethoxy-benzylamide] | < 100 | < 100
2 | CCC(F)(F)c1ccc(CNC(=O)[C@H]2CN(c3nc4nc(C)[nH]c(=O)c4s3)CCN2S(=O)(=O)c2ccc(OC(F)(F)F)cc2)cc1 [Example 911, (R)-4-(5-methyl-7-oxo-6,7-dihydro-thiazolo[4,5-d]pyrimidin-2-yl)-1-(4-trifluoromethoxy-benzenesulfonyl)-piperazine-2-carboxylic acid 4-(1,1-difluoro-propyl)-benzylamide] | < 100 | < 100
3 | O=C(NCc1ccc(OC(F)(F)F)cc1)[C@H]1CN(c2nc3nc(Br)ncc3s2)CCN1S(=O)(=O)c1ccc(OC(F)(F)F)cc1 [Example 912, (R)-4-(5-bromo-thiazolo[4,5-d]pyrimidin-2-yl)-1-(4-trifluoromethoxy-benzenesulfonyl)-piperazine-2-carboxylic acid 4-trifluoromethoxy-benzylamide] | < 100 | < 100
4 | CCCc1ccc(CNC(=O)[C@H]2CN(c3nc4nc(Cl)ncc4s3)CCN2S(=O)(=O)c2ccc(OC(F)(F)F)cc2)cc1 [Example 913, (R)-4-(5-chloro-thiazolo[4,5-d]pyrimidin-2-yl)-1-(4-trifluoromethoxy-benzenesulfonyl)-piperazine-2-carboxylic acid 4-propyl-benzylamide] | < 100 | < 100
5 | CCCc1ccc(CNC(=O)[C@H]2CN(c3nc4ncncc4s3)CCN2S(=O)(=O)c2ccc(OC(F)(F)F)cc2)cc1 [Example 914, (R)-4-thiazolo[4,5-d]pyrimidin-2-yl-1-(4-trifluoromethoxy-benzenesulfonyl)-piperazine-2-carboxylic acid 4-propyl-benzylamide] | < 100 | < 100
6 | NC(=O)c1nncc2sc(N3CCN(S(=O)(=O)c4ccc(OC(F)(F)F)cc4)[C@@H](C(=O)NCc4ccc(OC(F)(F)F)cc4)C3)nc12 [Example 915, 2-[(R)-4-(4-trifluoromethoxy-benzenesulfonyl)-3-(4-trifluoromethoxy-benzylcarbamoyl)-piperazin-1-yl]-thiazolo[4,5-d]pyridazine-4-carboxylic acid amide] | < 100 | < 100
7 | CNC(=O)c1nncc2sc(N3CCN(S(=O)(=O)c4ccc(OC(F)(F)F)cc4)[C@@H](C(=O)NCc4ccc(OC(F)(F)F)cc4)C3)nc12 [Example 916, 2-[(R)-4-(4-trifluoromethoxy-benzenesulfonyl)-3-(4-trifluoromethoxy-benzylcarbamoyl)-piperazin-1-yl]-thiazolo[4,5-d]pyridazine-4-carboxylic acid methylamide] | < 100 | < 100
8 | Cc1nncc2sc(N3CCN(S(=O)(=O)c4ccc(OC(F)(F)F)cc4)[C@@H](C(=O)NCc4ccc(OC(F)(F)F)cc4)C3)nc12 [Example 917, (R)-4-(4-methyl-thiazolo[4,5-d]pyridazin-2-yl)-1-(4-trifluoromethoxy-benzenesulfonyl)-piperazine-2-carboxylic acid 4-trifluoromethoxy-benzylamide] | < 100 | < 100
9 | O=C(NCc1ccc(OC(F)(F)F)cc1)[C@H]1CN(c2nc3nc(Cl)ncc3s2)CCN1S(=O)(=O)c1ccc(OC(F)F)cc1 [Example 918, (R)-4-(5-chloro-thiazolo[4,5-d]pyrimidin-2-yl)-1-(4-difluoromethoxy-benzenesulfonyl)-piperazine-2-carboxylic acid 4-trifluoromethoxy-benzylamide] | < 100 | < 100
10 | O=C(NCc1ccc(OC(F)(F)F)cc1)[C@H]1CN(c2nc3ncncc3s2)CCN1S(=O)(=O)c1ccc(OC(F)F)cc1 [Example 919, (R)-1-(4-difluoromethoxy-benzenesulfonyl)-4-thiazolo[4,5-d]pyrimidin-2-yl-piperazine-2-carboxylic acid 4-trifluoromethoxy-benzylamide] | < 100 | < 100
11 | Cc1cc(=O)n2nc(N3CCN(S(=O)(=O)c4ccc(OC(F)(F)F)cc4)[C@@H](C(=O)NCc4ccc(OC(F)(F)F)cc4)C3)sc2n1 [Example 920, (R)-4-(7-methyl-5-oxo-5H-[1,3,4]thiadiazolo[3,2-a]pyrimidin-2-yl)-1-(4-trifluoromethoxy-benzenesulfonyl)-piperazine-2-carboxylic acid 4-trifluoromethoxy-benzylamide] | 100 to 1000 | < 100
12 | Cc1ncc2nc(N3CCN(S(=O)(=O)c4ccc(OC(F)(F)F)cc4)[C@@H](C(=O)NCc4ccc(OC(F)(F)F)cc4)C3)sc2n1 [Example 921, (R)-4-(5-methyl-thiazolo[5,4-d]pyrimidin-2-yl)-1-(4-trifluoromethoxy-benzenesulfonyl)-piperazine-2-carboxylic acid 4-trifluoromethoxy-benzylamide] | 100 to 1000 | < 100
13 | O=C(NCc1ccc(OC(F)(F)F)cc1)[C@H]1CN(c2nn3cnnc3s2)CCN1S(=O)(=O)c1ccc(OC(F)(F)F)cc1 [Example 922, (R)-4-[1,2,4]triazolo[3,4-b][1,3,4]thiadiazol-6-yl-1-(4-trifluoromethoxy-benzenesulfonyl)-piperazine-2-carboxylic acid 4-trifluoromethoxy-benzylamide] | < 100 | < 100
14 | O=C1CCC(N2CCN(S(=O)(=O)c3ccc(OC(F)(F)F)cc3)[C@@H](C(=O)NCc3ccc(OC(F)(F)F)cc3)C2)CN1 (stereo partly drawn) [Example 923, (R)-4-(6-oxo-piperidin-3-yl)-1-(4-trifluoromethoxy-benzenesulfonyl)-piperazine-2-carboxylic acid 4-trifluoromethoxy-benzylamide] | 100 to 1000 | 100 to 1000
15 | O=C(NCc1ccc(OC(F)(F)F)cc1)[C@H]1CN(c2ccc(=O)[nH]c2)CCN1S(=O)(=O)c1ccc(OC(F)(F)F)cc1 [Example 924, (R)-4-(6-oxo-1,6-dihydro-pyridin-3-yl)-1-(4-trifluoromethoxy-benzenesulfonyl)-piperazine-2-carboxylic acid 4-trifluoromethoxy-benzylamide hydrochloride] | 100 to 1000 | 100 to 1000
16 | Cc1ncc2sc(N3CCN(S(=O)(=O)c4ccc(C(F)(F)F)cc4)[C@@H](C(=O)NCc4ccc(OC(F)(F)F)cc4)C3)nc2n1 [Example 925, (R)-4-(5-methyl-thiazolo[4,5-d]pyrimidin-2-yl)-1-(4-trifluoromethyl-benzenesulfonyl)-piperazine-2-carboxylic acid 4-trifluoromethoxy-benzylamide] | < 100 | < 100
17 | CCC(F)(F)c1ccc(CNC(=O)[C@H]2CN(c3nc4nc(C)ncc4s3)CCN2S(=O)(=O)c2ccc(OC(F)(F)F)cc2)cc1 [Example 926, (R)-4-(5-methyl-thiazolo[4,5-d]pyrimidin-2-yl)-1-(4-trifluoromethoxy-benzenesulfonyl)-piperazine-2-carboxylic acid 4-(1,1-difluoro-propyl)-benzylamide] | < 100 | < 100

From patent US8017612B2, “Piperazine compound and use thereof as a HCV polymerase inhibitor” (priority 2006, dated 2011)
